The values that follow come from patent US20090215752A1, “Compounds, preparation and therapeutic use thereof” (priority 2005, published 2009).

For one experiment, the system named is σ receptors. Nature of the experiment: Isolated organ bioassay, field-stimulated vas deferens: test for antagonist activity. On the set-up: species or system guinea pig. The following applies: mean, n=2. On the procedure:
Segments of guinea pig vas deferens were suspended in 20-ml organ baths containing an oxygenated (95% O2 and 5% CO2) and pre-warmed (37° C.) physiological salt solution of the following composition (in mM): NaCl 118.0, KCl 4.7, MgSO4 1.2, CaCl2 2.5, KH2PO4 1.2, NaHCO3 25.0 and glucose 11.0 (pH 7.4). Yohimbine (1 μM), (−) sulpiride (1 μM), atropine (1 μM) and naloxone (1 μM) were also present throughout the experiments to block the α2-adrenergic, dopamine D2, muscarinic and opioid receptors, respectively. The tissues were connected to force transducers for isometric tension recordings. They were stretched to a resting tension of 0.5 g, allowed to equilibrate for at least 30 min during which time they were washed repeatedly and the tension readjusted. Thereafter, they were stimulated electrically using a constant current stimulator.
The tissues were exposed to a submaximal concentration of the reference agonist (+) SKF-10047 (100 μM) to obtain a control response. After stabilization of the (+) SKF-10047-induced response, increasing concentrations of substance or the reference antagonist rimcazole were added cumulatively. Each concentration was left in contact with the tissues until a stable response was obtained or for a maximum of 15 min. If it occurred, an inhibition of the (+) SKF-10047-induced increase in twitch contraction amplitude by substance indicated an antagonist activity at the σ receptors.
The parameter measured was the maximum change in the twitch contraction amplitude induced by each compound concentration. The results are expressed as a percent variation of the control twitch contraction amplitude (mean values). The effects of substance tested at 1.0 10^−6 M, 3.0 10^−6 M and 1.0 10^−5 M for agonist and antagonist activities at the σ receptors in the guinea pig vas deferens bioassay are summarized in Tables 6-7 where those of the reference compounds are also reported.

Another experiment relates to PDE1. Put plainly: Selectivity: inhibition of PDE1 (radioenzymatic assay). The class given is biochemical, bovine. The settings on record: Table 2. The procedure:
(§1) 2.1.1. Isolation of Phosphodiesterases from Smooth Muscle A 3 g segment of bovine aortic media cut into pieces with scissors was homogenized with an ultra-turrax then a potter glass/glass homogenizer in 7 volumes by weight of buffer A containing a protease inhibitor cocktail (20 mM Tris-HCl, 0.25 M saccharose, 2 mM magnesium acetate, 1 mM dithiothreitol, 5 mM EGTA, 2000 U/ml aprotinin, 10 mg/l leupeptin and 10 mg/l soya trypsic inhibitor). The homogenizate was centrifuged at 105,000 g for 1 hour. The supernatant was loaded on a DEAE-Sephacel column (15×1.6 cm) pre-equilibrated with buffer B (buffer A without the saccharose, EGTA and protease inhibitors). The column was washed until there was no detectable absorption at 280 nm, then eluted with a linear gradient of NaCl (0-0.5 M) in buffer B. 3-ml fractions were collected and enzyme activity was determined under the conditions described hereinbelow to localize the different enzymes PDE1, PDE3, PDE4 and PDE5 which were aliquoted and frozen at −80° C. (Lugnier et al., Biochem. Phamacol., 1986, 35: 1746-1751). […]
(§2) Cyclic nucleotide phosphodiesterase activity was determined by a radioenzymatic method using tritium-labelled cyclic GMP or AMP (1 μM) as substrate (Lugnier et al., 1986). ^3H-labelled adenosine or guanosine monophosphate formed by hydrolysis of the radiolabelled cyclic nucleotide was then converted to ^3H-labelled adenosine or guanosine in a second reaction with one nucleotidase in excess. […] Nucleoside radioactivity was determined by liquid scintillation counting. […]
(§3) The activity of the compounds was evaluated on other phosphodiesterase isoforms, particularly basal state or calmodulin-activated PDE1 from vascular smooth muscle, PDE3, PDE4 and PDE5 from vascular smooth muscle. The results obtained are presented in Tables 1 and 2 hereinbelow and are expressed as the percentage inhibition of enzymatic activity produced by […] of the test compound.

The subject of another experiment is PDE4. Put plainly: Selectivity: inhibition of PDE4 (radioenzymatic assay). Type of experiment: biochemical, bovine. The following applies: Table 2. The procedure: 2.1.1. Isolation of Phosphodiesterases from Smooth Muscle A 3 g segment of bovine aortic media cut into pieces with scissors was homogenized with an ultra-turrax then a potter glass/glass homogenizer in 7 volumes by weight of buffer A containing a protease inhibitor cocktail (20 mM Tris-HCl, 0.25 M saccharose, 2 mM magnesium acetate, 1 mM dithiothreitol, 5 mM EGTA, 2000 U/ml aprotinin, 10 mg/l leupeptin and 10 mg/l soya trypsic inhibitor). The homogenizate was centrifuged at 105,000 g for 1 hour. The supernatant was loaded on a DEAE-Sephacel column (15×1.6 cm) pre-equilibrated with buffer B (buffer A without the saccharose, EGTA and protease inhibitors). The column was washed until there was no detectable absorption at 280 nm, then eluted with a linear gradient of NaCl (0-0.5 M) in buffer B. 3-ml fractions were collected and enzyme activity was determined under the conditions described hereinbelow to localize the different enzymes PDE1, PDE3, PDE4 and PDE5 which were aliquoted and frozen at −80° C. (Lugnier et al., Biochem. Phamacol., 1986, 35: 1746-1751). PDE2 was isolated from human platelets, provided by Etablissement Français du Sang-Alsace, according to Kameni Tcheudji J F et al., (J. Mol. Biol. 2001; 310: 181-791), and stored until use at −80° C. in small aliquots.
Cyclic nucleotide phosphodiesterase activity was determined by a radioenzymatic method using tritium-labelled cyclic GMP or AMP (1 μM) as substrate (Lugnier et al., 1986). ^3H-labelled adenosine or guanosine monophosphate formed by hydrolysis of the radiolabelled cyclic nucleotide was then converted to ^3H-labelled adenosine or guanosine in a second reaction with […] in excess. The nucleoside formed was separated from the nucleotides by anion exchange chromatography. Nucleoside radioactivity was determined by liquid scintillation counting. Enzymatic incubations were carried out under conditions allowing no more than 15% hydrolysis of the substrate; each point was performed in duplicate.
as §3

In a further experiment the target is T1, PDE3 (Bos taurus, UniProt A0A3Q1M1E8).
T1 sequence (A0A3Q1M1E8 1-1126): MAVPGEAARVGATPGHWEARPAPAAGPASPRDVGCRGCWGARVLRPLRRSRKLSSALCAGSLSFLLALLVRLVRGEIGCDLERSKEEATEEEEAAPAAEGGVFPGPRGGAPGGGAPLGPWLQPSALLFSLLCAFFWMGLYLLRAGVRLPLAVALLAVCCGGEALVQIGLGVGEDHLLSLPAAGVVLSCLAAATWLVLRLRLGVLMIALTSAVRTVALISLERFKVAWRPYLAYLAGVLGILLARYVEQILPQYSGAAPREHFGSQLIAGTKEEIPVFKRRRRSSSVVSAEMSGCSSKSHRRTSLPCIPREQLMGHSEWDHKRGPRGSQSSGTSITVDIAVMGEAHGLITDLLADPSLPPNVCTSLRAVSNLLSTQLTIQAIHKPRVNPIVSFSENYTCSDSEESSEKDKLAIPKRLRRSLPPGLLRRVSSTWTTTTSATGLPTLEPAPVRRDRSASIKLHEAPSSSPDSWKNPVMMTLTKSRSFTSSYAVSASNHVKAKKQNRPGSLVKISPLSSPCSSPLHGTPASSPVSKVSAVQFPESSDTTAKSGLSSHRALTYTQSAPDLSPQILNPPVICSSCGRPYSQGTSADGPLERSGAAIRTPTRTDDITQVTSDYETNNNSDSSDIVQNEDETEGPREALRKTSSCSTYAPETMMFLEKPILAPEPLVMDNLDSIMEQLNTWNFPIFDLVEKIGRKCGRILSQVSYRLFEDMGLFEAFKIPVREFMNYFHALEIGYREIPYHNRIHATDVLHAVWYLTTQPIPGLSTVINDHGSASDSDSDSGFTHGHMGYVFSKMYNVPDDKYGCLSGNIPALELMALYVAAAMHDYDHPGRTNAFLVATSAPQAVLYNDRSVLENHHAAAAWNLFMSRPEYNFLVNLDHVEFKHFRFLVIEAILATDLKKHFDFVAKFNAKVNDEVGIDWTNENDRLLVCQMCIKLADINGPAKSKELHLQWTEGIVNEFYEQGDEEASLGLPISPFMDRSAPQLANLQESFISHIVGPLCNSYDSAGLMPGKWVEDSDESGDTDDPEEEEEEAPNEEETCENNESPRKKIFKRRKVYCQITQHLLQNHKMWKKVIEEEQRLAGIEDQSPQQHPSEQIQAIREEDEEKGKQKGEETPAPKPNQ
Put plainly: Selectivity: inhibition of PDE3 (radioenzymatic assay). The settings on record: Table 2; 10 μM compound; read-out: PDE3 percentage inhibition at 10 μM. The class given is biochemical, bovine. On the procedure: as §1, §2, §3

Usually IC50 stands for the point on the concentration scale where inhibition reaches its midpoint. Read a high IC50 as weaker potency. The term inhibition denotes the share of the control response that was lost under treatment. Regarding `COc1cc2c(c(OC)c1-c1ccccc1)C(c1cccc(C(N)=O)c1)=NCC(=O)N2C` [Compound 17, 3-(6,8-Dimethoxy-1-methyl-2-oxo-7-phenyl-2,3-dihydro-1H-benzo[e][1,4]diazepin-5-yl)-benzamide], the “Response to (+)SKF-10,047 (1.0 10^−4 M) in the presence of the compound” value with σ receptors (compound 1.0 10^−5 M) is listed as “+169%”; in the experiment with σ receptors (compound 1.0 10^−6 M), “+139%”; in the experiment with σ receptors (compound 3.0 10^−6 M), “+139%”. Besides, the “PDE1 percentage inhibition at 10 μM” value in the experiment with PDE1 (10 μM compound) is reported as 22%. Moreover, the half-maximal inhibitory concentration (IC50) in the experiment with PDE1 (value in square brackets) is 37 µM; with PDE4 (value in square brackets), 47 µM. In the experiment on PDE4 (10 μM compound), the “PDE4 percentage inhibition at 10 μM” value stood at 23%. Further, the inhibition at 10 µM on PDE3 is 20%.
